Source: US7498406B2, “Substantially cell membrane impermeable compound and use thereof” (priority 1999, dated 2009)
pIC50: −log10 of the molar value.

Experiments:
3T3 = test: Viability of cultured cells, 72 hr; format: cell-based, murine; settings: 0 to 1 mM
Experimental: FIG. 19. Effect of GSAO on proliferation of non-endothelial cells. 15,000 BxPC-3 (part A), HT1080 (part B), 3T3 (part C) or BVSM (part D) cells per well were seeded into gelatinised 24-well culture plates and allowed to attach for 24 hr. The media was then replaced with DMEM containing 0 to 1 mM GSAO or GSAA and either 5% BCS (part D) or 5% FCS (parts A, B and C). Cells were cultured for 72 hr and then dispersed and counted. The dotted lines indicate the cell number in control wells containing DMEM and 2% BCS (part D) or 2% FCS (parts A, B and C) which represented no to limited proliferation. The data points and errors represent the mean and range of duplicate wells.
BCE (Folkman et al. 1979), BAE, BxPC-3 (ATCC, Bethesda, Md.), HT1080 (Jiang et al., 1999), 3T3 (ATCC, Bethesda, Md.) and BVSM (Hogg et al., 1997) cells were harvested and cultured as indicated. […] Cells were cultured for 0 to 72 hr in 10% CO2 at 37° C. then dispersed in trypsin/EDTA (GibcoBRL, Granc Island, N.Y.), resuspended in Coulter balanced electrolyte solution and counted with a Z1 Coulter counter (Coulter Corp., Miami, Fla.) in all experiments there were two control wells containing DMEM with 1% GPS and either 5% BCS for BCE cells, 2% BCS for BAE and BVSM cells, or 2% FCS for BxPC-3, HT1080 and 3T3 cells. […]

BxPC-3 tumours = test: Tumour growth in mice, subcutaneous administration; format: in vivo, SCID mice; settings: for inhibition of the rate of BxPC-3 tumour growth: subcutaneous
Experimental: FIG. 23. Inhibition of human pancreatic tumour growth by GSAO. BxPC-3 tumours were established in the proximal midline of female 7 to 9 week old SCID mice. When the tumours were ˜0.1 cm^3 in volume the mice were randomised into two groups and treated with either GSAA or GSAO at doses of 2 (part A) or 10 (part B) mg per kg per day in 0.2 mL of PBS containing 100 mM glycine. The compounds were administered subcutaneously at a site distant from the tumour. Tumour volume and animal weight was measured every 3 days. The GSAO/GSAA tumour volume ratio at day 26 of treatment with 2 mg per kg per day was 0.34 (part A). The GSAO/GSAA tumour volume ratio at day 31 of treatment with 10 mg per kg per day was 0.09 (part B). There were 4 mice per group in part A and 4 mice treated with GSAA and 5 with GSAO in part B. The mice and excised tumours from the experiment described in Part B at day 31 of treatment are shown in Part C. The data points and errors represent the mean and SE of the tumour volumes.
Female 7 to 9 week old SCID or C57Bl6/J mice were used (Massachusetts General Hospital, Boston, Mass.). Mice were held in groups of 3 to 5 at a 12 hour day and night cycle and were fed with animal chow and water ad libidum. SCID mice were anaesthetised by inhalation of isoflurane, the dorsal skin shaved and cleaned with ethanol, and a suspension of 2.5×10^6 BxPC-3 or HT1080 cells in 0.2 mL of DMEM was injected subcutaneously in the proximal midline. C57Bl6/J mice with Lewis lung carcinomas of 0.6-1.2 cm^3 volumes were sacrificed and the skin overlying the tumour was cleaned with betadine and ethanol. Tumour tissue was excised under aseptic conditions and a suspension of tumour cells in 0.9% saline was made by passage of tumour tissue through a sieve and a series of sequentially smaller 22- to 30-gauge hypodermic needles. C57Bl6/J mice were anaesthetised and prepared as for SCID mice and a suspension of Lewis lung carcinoma cells in 0.2 mL of saline was injected subcutaneously in the proximal midline. Tumours were allowed to establish and grow to a size of ˜0.1 cm^3 after which they were randomised into two groups. The tumours were measured in two diameters and tumour volume was calculated using the relationship, tumour volume=a×b^2×0.52, where a is the longest and b the shortest diameters in cm. Animals were treated with either GSAA or GSAO at doses of 2 or 10 mg per kg per day in 0.2 mL of PBS containing 100 mM glycine. The compounds were administered subcutaneously at a site distant from the tumour. Tumour volume and animal weight was measured every 3 days. The tumours were excised and weighed when the animals were sacrificed.

SMILES | Viability IC50 (3T3; 5% FCS) | inhibition of the rate of BxPC-3 tumour growth (BxPC-3 tumours; 2 mg per kg per day) | inhibition of the rate of BxPC-3 tumour growth (BxPC-3 tumours; 10 mg per kg per day) [%] | pIC50 (3T3; Mus musculus, NIH3T3, 5% FCS) | GSAO/GSAA tumour volume ratio (BxPC-3 tumours; day 26 of treatment, 2 mg per kg per day) | GSAO/GSAA tumour volume ratio (BxPC-3 tumours; day 31 of treatment, 10 mg per kg per day)
N[C@@H](CCC(=O)N[C@@H](CSCC(=O)Nc1ccc([As](=O)(O)O)cc1)C(=O)NCC(=O)O)C(=O)O [GSAA, 4-(N-(S-glutathionylacetyl)amino)phenylarsonic acid, reference compound] | no significant effect | no effect | < 20 |  |  | 
NC(CCC(=O)NC(CSCC(=O)Nc1ccc([As]=O)cc1)C(=O)NCC(=O)O)C(=O)O (centres unmarked) [GSAO, 4-(N-(S-glutathionylacetyl)amino)-phenylarsenoxide] |  | ~70% | > 90 | ~4.40 | 0.34 | 0.09
